The values below come from the METLIN SMRT retention time set (Domingo-Almenara et al. 2019).

A short description of this series: gradient 5% acetonitrile 3 min, to 50% in 2 min, to 85% in 15 min, held 3 min, 100 µL/min. As to conditions: column: Zorbax Extend-C18 2.1 x 50 mm; eluents: water / acetonitrile, 0.1% formic acid. An outline of the steps: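 Over 3 months, pure standards in mixtures of ~100 molecules were run by HPLC coupled to a quadrupole time-of-flight mass spectrometer in positive and negative ionization mode. The column was a Zorbax Extend-C18 (2.1 × 50 mm, 1.8 μm) at 100 μL/min, eluted with water and acetonitrile each holding 0.1% formic acid, with 40 μL dead and 900 μL dwell volumes. Retention time was determined from adduct peaks chosen by software and checked manually.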
In turn, `Cc1ccc(Cl)cc1NC(=O)CSc1nc2ncccc2c(=O)n1CC1CCCO1` (stereo not given) showed an RP-LC retention time of 794 s.
With `O=C(c1cnccn1)N1CCCC1c1nc(-c2cccc(C(F)(F)F)c2)no1` (stereo not given) the figure was 798 s; with `O=C(CN1CCC2(CC1)N=C(c1ccc(F)cc1)C(=O)N2)Nc1cc(F)ccc1F`, 692 s.
The same measure for `Cn1c(=O)n(CC(=O)NC2CCCCC2)c(=O)c2cnc(-c3ccc(Cl)cc3)nc21`: 1070 s; for `O=C(N[C@H]1C[C@@H]2C[C@H]1CN2C(=O)c1cccc(C(F)(F)F)c1)c1ccccc1`: 809 s; for `CCn1c(N2CCC(C(=O)NC3CCCCCC3)CC2)cc(=O)n(C)c1=O`: 855 s.
`CS(=O)(=O)N1CCC(C(=O)Nc2nnc(-c3ccc(F)cc3)o2)CC1` yielded an RP-LC retention time of 636 s.
Compound `O=C(O)CC1CCCN(c2cnn(CC3CC3)c(=O)c2)C1` (stereo not given) registered an RP-LC retention time of 657 s.
The compound `CN(C)S(=O)(=O)N1CCN(S(=O)(=O)c2ccc(F)cc2)CC1` registered an RP-LC retention time of 757 s.
With `CCOc1ccc(S(=O)(=O)N2CCCN(c3ccc(=O)n(-c4ccccc4)n3)CC2)cc1` the figure was 892 s; with `COC(=O)c1cccc(NC(=O)CSc2nccc(N3CCN(c4ccc(OC)cc4)CC3)n2)c1`, 743 s.
For `Cc1ccc(Cn2nc3ccc(S(=O)(=O)N4CCSCC4)cn3c2=O)cc1C`, the RP-LC retention time came to 1000 s.
With `CCCOc1ccc(C2NC(=O)NC(C)=C2C(=O)OC2CCCC2)cc1OC` (stereo not given) the figure was 857 s.
The same measure for `COc1ccc(NC(=O)Cn2c(C)cc(-c3nnc(-c4ccco4)o3)c2C)cc1F`: 865 s; for `CC(C)c1ccc(S(=O)(=O)N2CC(=O)N(C3CCCC3)C3(CCCCC3)C2)cc1`: 1330 s; for `CC(C)CN(Cc1cccnc1)C1CN(S(=O)(=O)c2cn(C)cn2)C1`: 591 s.
`COc1cc2c(c(OC)c1O)C(=O)CO2` yielded an RP-LC retention time of 642 s.
Compound `O=C(Nc1cnc(N2CCN(CCOc3ccc(Cl)cc3)CC2)c(C(=O)O)c1)c1cccs1` gave an RP-LC retention time of 683 s.
With `COc1ccc(NC(=O)Cn2nc3nc(N4CCCC4)ccn3c2=O)cc1Cl` the figure was 676 s.
Consider `S=c1cc(N2CCSCC2)[nH]cn1`, for which the RP-LC retention time amounted to 602 s.
The same measure for `CN1CCN(CC(=O)N2CCNC(=O)C2CC(=O)Nc2cccc(C(F)(F)F)c2)CC1` (stereo not given): 602 s; for `O=C(NCc1ccccc1Cl)C1CCCN(S(=O)(=O)c2c[nH]c(C(=O)N3CCCC3)c2)C1` (stereo not given): 790 s; for `NC(=O)C1CCN(Cc2nc(-c3ccc(N4CCOCC4)nc3)no2)CC1`: 563 s.
As for `Cn1nc(-c2nnc(-c3ccccc3Cl)o2)c2c1CCN(C(=O)NC1CCCCC1)C2`, the RP-LC retention time was found to be 899 s.
With `CCc1nc(-c2csc(S(=O)(=O)N3CCCC(C(=O)Nc4ccccc4)C3)c2)no1` (stereo not given) the figure was 1030 s.
With `Cc1cc(-c2nnc(NC(=O)CS(=O)(=O)c3ccc(Cl)cc3)o2)nn1C` the figure was 677 s; with `Cn1cc(S(=O)(=O)N2CCCCC2)cc1C(=O)N1CCc2ccccc2C1`, 938 s; with `COCCOCc1nc(C2CCN(S(=O)(=O)c3ccc(OC)cc3)C2)no1` (stereo not given), 791 s.
With `COc1ccc(C(=O)Nc2nc(-c3ccccc3)cs2)cc1` the figure was 1040 s; with `O=c1ccc(-c2ccco2)nn1CCCNS(=O)(=O)/C=C/c1ccccc1`, 759 s.
On to `Cn1c(=O)n(C2CCN(C(=O)Cc3ccccc3)CC2)c2ncncc21`, for which the RP-LC retention time was determined as 655 s.
With `CCNc1nc(N2CCCC2)nc(-n2cnc(SC)n2)n1` the figure was 885 s.
With `CCc1ccc(-n2nnc(C(=O)N3CCC4(CC3)OCCO4)c2-c2cccnc2)cc1` the figure was 783 s.
With `CC1=C(c2ccccc2)S(=O)(=O)N=C1N1CCCN(S(=O)(=O)c2cccnc2)CC1` the figure was 769 s; with `Cc1cccc(C)c1NC1=NCCCS1`, 635 s; with `Cn1nccc1-c1cccc(-c2noc(-c3ccc(C#N)cc3)n2)c1`, 1050 s.
The compound `CCOC(=O)c1cccc(Nc2c(-c3ccccc3)nc3cnccn23)c1` had an RP-LC retention time of 875 s.
As to `Cc1ccc(C(=O)N2CCc3nc(-c4ccc(Cl)cc4)ncc3C2)cc1F`, the RP-LC retention time is 1150 s.
The same measure for `CCCN(C)C(=O)C1c2ccccc2CC(=O)N1Cc1ccccc1` (stereo not given): 828 s.
`Cc1ccc(NC(=O)N2C[C@@H](F)C[C@H]2C(=O)N2CCCCC2)cc1Cl` displayed an RP-LC retention time of 813 s.
The same measure for `CC(=O)N1CCCc2cc(S(=O)(=O)CCC(=O)Nc3cc(C)ccc3C)ccc21`: 758 s; for `CCn1cc(CCNS(=O)(=O)Cc2ccc(F)cc2Cl)c2cccnc21`: 812 s; for `Cc1ccccc1C(=O)N1CC(C(=O)NCC(C)C)C(c2cccc(C(F)(F)F)c2)C1` (stereo not given): 907 s.
The same measure for `CN1CCCCCCN(C(=O)Nc2ccc3c(c2)OCCO3)CCC1=O`: 745 s; for `COc1ccc(C(=O)Nc2nnc(SCc3nnc(-c4ccccc4C)o3)s2)cc1`: 966 s.
The same measure for `CCOC(=O)c1cc(C2CC2)nc2c1c(=O)n(Cc1cccc(C(F)(F)F)c1)c(=O)n2C`: 1270 s.
In turn, `CCOc1ccc(-c2noc(Cc3nnc(-c4cccc(Br)c4)o3)n2)cc1` came in with an RP-LC retention time of 1160 s.
With `O=C(NCC1CCOCC1)c1c[nH]c2ccccc12`, the RP-LC retention time turned out to be 636 s.
The same measure for `COCCc1noc(-c2ccc(=O)n(CC(=O)NC3CCCCC3)c2)n1`: 684 s; for `O=C(Cc1ccsc1)N1CCCC1c1nc(-c2ccc(F)cc2F)no1` (stereo not given): 922 s.
With `Cc1cc2c(cc1C(=O)NCc1ccc3c(c1)CCCO3)OCCCO2` the figure was 872 s.
Regarding `Cn1nc(-c2nc(C3CC3)no2)c2c1CCN(C(=O)c1ccc(Cl)s1)C2`, the RP-LC retention time came out at 928 s.
With `CC(=O)Nc1ccc(C2(C(=O)NCc3cccc(Cl)c3)CCC2)cc1` the figure was 785 s; with `Cc1cccc(N2C(=O)CN(CCc3ccccc3)[C@H]3CS(=O)(=O)C[C@H]32)c1`, 826 s; with `CCN1C(=O)CC[C@]2(CNC(=O)c3ccc(OC)nc3)CCC[C@@H]12`, 671 s.
The same measure for `Clc1cccc(-c2nnc(Cc3nc(-c4ccccc4)no3)o2)c1`: 1070 s; for `CN(C)C(=O)CN1CCN(c2ccc(NC(=O)C(C)(C)C)c(C(=O)O)c2)CC1`: 595 s; for `CCOC(=O)N1CCC(NC(=O)c2coc(NC(=O)c3ccco3)n2)CC1`: 605 s.
The same measure for `O=C(CC1CCCC1)N1CCN(CCn2cccn2)CC1`: 560 s; for `CCOc1ccc(-c2ccc(N3CCN(C(=O)c4ccc5ncsc5c4)CC3)nn2)cc1`: 629 s; for `COc1ccc(C2(C(=O)N3CC(N(Cc4ccncc4)S(C)(=O)=O)C3)CC2)cc1`: 613 s.
Compound `O=C(Cn1nc2nc(N3CCCC3)ccn2c1=O)N1CCN(c2ccc(F)cc2)CC1` gave an RP-LC retention time of 661 s.
With `COc1ccc(-c2noc(CN3C(=O)COc4cc(C)ccc43)n2)cc1OC` the figure was 954 s.
The compound `O=C(Nc1cnc(-c2ccccc2)nc1)C1CCCC1` displayed an RP-LC retention time of 936 s.
The same measure for `O=C(NC1CCN(C(=O)N2C[C@H]3C[C@H](C2)[C@H]2CCCC(=O)N2C3)CC1)c1ccc2ccccc2n1`: 714 s.
Compound `CC1CN(CC(=O)NCc2ccc3c(c2)OCO3)c2ccccc2S1` (stereo not given) gave an RP-LC retention time of 967 s.
With `COCCOC1CCC12CCN(C(=O)c1cc(C)oc1C)CC2` (stereo not given) the figure was 811 s; with `CC(C)S(=O)(=O)N1CCC2(CC1)NCCCN=C2Nc1cccc(F)c1`, 638 s.
`O=C(Cc1cccs1)N1CCC(c2nc(-c3ccccc3)no2)C1` (stereo not given) yielded an RP-LC retention time of 883 s.
With `COc1ccccc1NC(=O)N1CCC(CNS(=O)(=O)c2cc(C)ccc2C)CC1` the figure was 735 s; with `COc1cc(C(=O)N2CCC(CC(=O)N3CCOCC3)CC2)cc(OC)c1OC`, 618 s.
With `Cc1c(Cl)cccc1NC(=O)C1CCCN(c2nc3c(s2)c(C)nn3-c2ccccc2)C1` (stereo not given) the figure was 1250 s.
For `Cn1nc(CNC(=O)c2ccc(F)c(F)c2)c2ccccc21`, the RP-LC retention time turned out to be 813 s.
The same measure for `CCCn1cc(S(=O)(=O)Nc2cc(C)ccc2C)c2cccnc21`: 960 s; for `CCOc1ccc(CN2C(=O)C3(CCOCC3)CC2c2nnnn2C(C)(C)C)cc1` (stereo not given): 833 s.
With `CS(=O)(=O)N1CC(C(=O)Nc2ccc3c(c2)OCCO3)C2(CCCCC2)C1` (stereo not given) the figure was 847 s; with `COc1ccc(OC)c(S(=O)(=O)N2CCC(c3cc(-c4cccc(C)c4)n[nH]3)CC2)c1`, 960 s.
With `CN(C)c1cc(N2CCCC(NC(=O)c3ccnn3C)C2)ncn1` (stereo not given) the figure was 578 s.
`COc1cccc(CN2CCC(Oc3ccccc3-c3nc(-c4cnccn4)no3)C2)n1` (stereo not given) returned an RP-LC retention time of 702 s.
With `O=S(=O)(Nc1cccnc1)c1cc(-c2nnc(-c3ccccc3)o2)ccc1F` the figure was 744 s.
